Experimental data taken from patent US12130255B2, “High-throughput label-free enzymatic bioassays using DESI-MS” (priority 2020, dated 2024).

Assays:
[1] = target: T1, acetylcholinesterase (AChE) (Homo sapiens, UniProt P22303); test: DESI-MS AChE inhibition, Dixon plot (inhibitor and substrate concentrations varied); format: biochemical
Procedure: For kinetic determinations the reactions were incubated for 50 minutes, with the concentration of substrate held kept between 0.4 to 1 mM, while the concentration of enzyme was set to 180 ng/mL. Note that only concentrations within the calibration range were used. The calibrated result (inset) is used to determine v0 of the reaction. The data shown come from eight instrumental replicates from a single mixture (128 spots), acquired in less than 2.5 minutes.
Further characterization of the inhibitors was achieved by screening simultaneously different concentrations of inhibitor and the substrate in order to obtain the Dixon plot (FIG. 11). […] This Dixon plot required that 24 independent progress curves be determined: duplicate measurements taken on 12 combinations of concentrations of inhibitor (0, 40, 100, 200 nM) and substrate (0.6, 0.8, 1.0 mM). This required the analysis of 3072 spots, carried out in approx. 35 minutes, with simultaneous incubation time of 50 minutes.

[2] = target: T1, acetylcholinesterase (AChE); test: DESI-MS label-free acetylcholinesterase inhibition assay, dose-response curves; format: biochemical

T1 sequence (P22303 32-614, species assumed): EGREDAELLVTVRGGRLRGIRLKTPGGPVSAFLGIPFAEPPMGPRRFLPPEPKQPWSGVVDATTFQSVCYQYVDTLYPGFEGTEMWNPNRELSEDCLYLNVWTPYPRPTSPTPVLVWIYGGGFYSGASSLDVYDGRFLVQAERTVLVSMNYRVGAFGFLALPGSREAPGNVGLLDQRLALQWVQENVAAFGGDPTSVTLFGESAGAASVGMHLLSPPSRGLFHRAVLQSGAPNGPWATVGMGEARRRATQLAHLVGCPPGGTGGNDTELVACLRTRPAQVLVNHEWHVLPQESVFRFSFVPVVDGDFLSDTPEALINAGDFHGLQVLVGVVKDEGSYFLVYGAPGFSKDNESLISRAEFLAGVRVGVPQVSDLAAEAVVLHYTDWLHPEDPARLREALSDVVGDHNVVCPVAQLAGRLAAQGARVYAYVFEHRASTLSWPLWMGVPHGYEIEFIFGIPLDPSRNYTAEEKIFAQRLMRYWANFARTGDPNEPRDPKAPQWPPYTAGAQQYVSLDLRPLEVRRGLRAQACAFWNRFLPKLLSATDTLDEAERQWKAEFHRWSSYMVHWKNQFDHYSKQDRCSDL

| Compound | type of inhibition (intersection of the lines in the Dixon plot) [1] | IC50 [2] |
| --- | --- | --- |
| CN(C)C(=O)Oc1cccc([N+](C)(C)C)c1 [neostigmine] | competitive inhibitor | – |
| COc1ccc2c3c1O[C@H]1C(=O)CC[C@H]4[C@@H](C2)N(C)CC[C@]314 [hydrocodone] | – | 116 µM |
| COc1ccc2c3c1O[C@H]1C(=O)CC[C@@]4(O)[C@@H](C2)N(C)CC[C@]314 [oxycodone] | – | 0.122 µM |
